Reference: publication PMC10906247, “From Functional Fatty Acids to Potent and Selective Natural-Product-Inspired Mimetics via Conformational Profiling” (ACS Central Science, 2024)
Read-outs that look alike come from different tables or passages of the source.

Legend:
[1] = biological target: T1, TLX ligand binding domain (Homo sapiens, UniProt Q9Y466); test: TLX ligand sensing assay (AlphaScreen, RIP140 NR box peptide recruitment); assay type: biochemical
T1 construct: purchased NovAliX SAS, Strasbourg, France
T1 sequence (Q9Y466 155-383 limits assumed): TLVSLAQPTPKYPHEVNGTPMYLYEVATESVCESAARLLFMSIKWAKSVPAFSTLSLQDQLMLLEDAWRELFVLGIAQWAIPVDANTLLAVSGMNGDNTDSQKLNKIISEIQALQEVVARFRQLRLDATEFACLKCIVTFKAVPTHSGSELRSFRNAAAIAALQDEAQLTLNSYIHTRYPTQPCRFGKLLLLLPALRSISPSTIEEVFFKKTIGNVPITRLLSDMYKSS

GPR40 (FFAR1) = GPR40 (FFAR1) (Homo sapiens, UniProt O14842); test: PathHunter β-arrestin assay (Eurofins Discovery), GPR40; assay type: cell-based
GPR40 (FFAR1), sequence (O14842 whole entry): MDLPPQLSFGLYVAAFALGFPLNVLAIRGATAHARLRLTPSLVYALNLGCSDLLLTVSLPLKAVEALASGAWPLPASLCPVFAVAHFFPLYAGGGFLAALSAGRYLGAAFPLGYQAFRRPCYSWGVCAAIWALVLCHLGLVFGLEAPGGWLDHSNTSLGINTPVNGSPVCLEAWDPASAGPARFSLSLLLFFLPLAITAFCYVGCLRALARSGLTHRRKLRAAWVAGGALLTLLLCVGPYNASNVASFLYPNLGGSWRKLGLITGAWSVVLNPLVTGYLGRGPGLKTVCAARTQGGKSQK
Procedure: (§1) With these compounds in hand, attention was directed at evaluating their properties as ligands to GPR40, GPR120,[24] and TLX. Initial profiling experiments were conducted targeting the GPCR targets at a single concentration (15 μM) in a commercially available β-arrestin assay.
(§2) Functional assays at GPR40 and GPR120 were conducted by Eurofins Discovery services using their PathHunter® b-Arrestin assay that monitors the activation of a GPCR in a homogenous, non-imaging assay format using a technology developed by DiscoverX called Enzyme Fragment Complementation (EFC) with b-galactosidase (b-Gal) as the functional reporter. b-Arrestin GPCR cell lines built on the principles of EFC are engineered to co-express the ProLinkTM (PK) tagged GPCR and the Enzyme Acceptor (EA) tagged b-Arrestin. Activation of the GPCR-PK induces b-Arrestin-EA recruitment, forcing complementation of the two b-galactosidase enzyme fragments (EA and PK). The resulting functional enzyme hydrolyzes substrate to generate chemiluminescent […]
(§3) Additional information can be found at: www.eurofinsdiscovery.com/solution/b-arrestin Below are dose-response curves generated from Eurofins Discovery services for activity of ligands depicted in Figure 6B at GPR40 (FFAR1) and GPR120. […]

GPR120 [2] = biological target: T2, GPR120 (Homo sapiens, UniProt Q5NUL3); conditions: read-out: GPR120 EC50 historical; oleic acid; cited from earlier work
T2 sequence (Q5NUL3 1-361): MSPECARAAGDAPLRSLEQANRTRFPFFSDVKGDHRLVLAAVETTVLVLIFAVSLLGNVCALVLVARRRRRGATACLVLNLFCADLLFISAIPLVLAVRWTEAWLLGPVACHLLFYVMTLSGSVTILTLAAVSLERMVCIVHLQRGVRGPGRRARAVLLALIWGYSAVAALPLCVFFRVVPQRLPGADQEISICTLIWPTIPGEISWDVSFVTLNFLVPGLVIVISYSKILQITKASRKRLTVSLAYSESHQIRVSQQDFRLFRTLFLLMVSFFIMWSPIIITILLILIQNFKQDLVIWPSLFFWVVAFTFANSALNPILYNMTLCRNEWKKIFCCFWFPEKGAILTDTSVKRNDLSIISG

MIN6 cells = test system: MIN6 cells; design: method as in PMID 12629551, PMID 12496284; conditions: cited from earlier work
GPR120 [3] = biological target: T2, GPR120; test: PathHunter β-arrestin assay (Eurofins Discovery), GPR120; assay type: cell-based
Procedure: as §1, §2, §3

GPR40 = conditions: oleic acid; stimulatory activity on CHO-mGPR40 cells; read-out: GPR40 EC50 historical; cited from earlier work
[4] = dose-response, oleic acid = 100

CCCCCCCC/C=C\CCCCCCCC(=O)O [oleic acid, reference compound]
EC50 [1]: 3.55 µM
enhanced recruitment of a coactivator protein fragment [1]: 8.4 fold
EC50 ([1]; ALPHA normalized, supplement, read-out: TLX EC50 (dose-response curves)): 3.55 µM
EC50 ([1]; coactivator recruitment, read-out: TLX EC50): 3.6 µM
TLX max. efficacy ([1]; oleic acid = 100): 100%
EC50 (GPR40 (FFAR1); GPR40 EC50 measured): 37 µM
GPR40 max. efficacy (GPR40 (FFAR1); [4]): 100%
right shift of GPR40 result relative to reported historical activity (GPR40 (FFAR1); measured vs historical EC50): ~20 fold
EC50 (GPR120 [2]): 12 µM
concentration inducing insulin secretion (MIN6 cells): ≥ 1 µM
EC50 (GPR120 [3]; GPR120 EC50 measured): 15 µM
GPR120 max. efficacy (GPR120 [3]; [4]): 100%
EC50 (GPR40): 2000 nM
